Earlier results on two compounds are cited in US20060104967A1, “Method of converting the state of proteins” (priority 2004, published 2006).

*1 amine or outer side, *2 acyl side, *3 side chain or, on linkers, in order; H or OH if unused. Where a SMILES comes first, the peptide text is derived from it. Bridges are numbered along the chain shown (N, C = ends). [ ]: non-standard residue; d: D form. Adda = CO[C@@H](Cc1ccccc1)[C@@H](C)/C=C(C)/C=C/[C@H](N[*:1])[C@H](C)C(=O)[*:2]; dAsp(3S-Me) = C[C@H](C(=O)[*:3])[C@@H](N[*:1])C(=O)[*:2]; d(γGlu) = O=C(O)[C@@H](CCC(=O)[*:2])N[*:1]; NMeDha = C=C(NC)C(=O)O

This series deals with PP2B. The settings on record: read-out: Ki values for PP2B, concentrations of inhibitors where the enzyme activity becomes to half.

As to `C=C1[C@@H](O)[C@@H]2O[C@]3(CC[C@H](/C=C/[C@@H](C)[C@@H]4CC(C)=C[C@@]5(O[C@H](C[C@@](C)(O)C(=O)O)CC[C@H]5O)O4)O3)CC[C@H]2O[C@@H]1[C@@H](O)C[C@H](C)[C@H]1O[C@@]2(CCCCO2)CC[C@H]1C` [okadaic acid], the Ki was 5000 µM. As for `C=C1C(=O)N[C@H](C)C(=O)N[C@@H](CC(C)C)C(=O)N[C@@H](C(=O)O)[C@H](C)C(=O)N[C@@H](CCCNC(=N)N)C(=O)N[C@@H](/C=C/C(C)=C/[C@H](C)[C@H](Cc2ccccc2)OC)[C@H](C)C(=O)N[C@@H](C(=O)O)CCC(=O)N1C` [microcystin LR] (R[Adda][d(γGlu)][NMeDha][dA]L[dAsp(3S-Me)]-OH; lactam N-7), the Ki was 200 µM.
